{"source": "patent US20170016019A1", "about": "“Plants Having Enhanced Pathogen Resistance and Methods of Modulating Pathogen Resistance in Plants” (The Governing Council of the University of Toronto, priority 2014, published 2017)", "key": {"[1]": {"tested_on": "CaTTM2", "assay": "Expression of TTM2 in pepper after BTH treatment", "type": "in vivo, Capsicum annuum", "settings": "4-5 week old pepper, 200 uM BTH, 48 hours", "method": "(§1) Tomato, Cucumber, Pepper and Petunia plants for BTH treatment were grown in Sunshine Mix at 22° C., 60% relative humidity, and approximately 140 uE m^−2 s^−1 with a 9-h photoperiod. Rice and Brachypodium distachyon plants for BTH treatment were grown in Rice Mix. tomato plants for Pseudomonas infection were grown in Sunshine Mix, at 22° C. 60% relative humidity, and natural light condition.\nFIG. 24b illustrates expression of CaTTM2 in approximately 4-5 week old pepper (Capsicum annuum) 48 hours after BTH (200 uM) treatment. Solution was sprayed with the addition of 0.025% (v/v) Silwet. Expression of the gene was suppressed similar to Arabidopsis TTM2."}, "[2]": {"tested_on": "PR1", "assay": "Quantitative real-time PCR of PR1 gene expression after SA or BTH treatment", "type": "in vivo, Arabidopsis thaliana", "settings": "Col wild type", "method": "(§2) Arabidopsis (Arabidopsis thaliana accession Columbia), canola (Brassica napus var. Westar), and soybean (Glycine max var. Harasoy) plants were grown in Sunshine Mix at 22° C., 60% relative humidity (RH), and ˜140 μE m^−2 s^−1 with a 9h-photoperiod. 7-10 day-old Arabidopsis plants were infected with Hyaloperonospora arabidopsidis (Hpa). Spore counts of 1×10^5 conidiospores ml^−1, 8×10^5 cells ml^−1, and 2×10^5 cells ml^−1 were used for Noco2, Emco5, and Emwa1 isolates, respectively. Seedlings were then infected via drop inoculation and left at 16° C., >90% RH for 7-10 days before disease assessment. 4-week-old plants were infiltrated with 1×10^5 CFU ml^−1 of the bacterial pathogen, Pseudomonas syringae tomato DC3000 (AvrRps4) and bacterial growth was assessed at 0 and 3 days post infiltration.\n(§3) RNA extraction was carried out using the TRIzol reagent (Life Technologies, Carlsbad, Calif.), according to the manufacturer's instructions. Reverse transcriptase (RT)-PCR was performed using cDNA generated by SuperScript II Reverse Transcriptase (Life Technologies, Carlsbad, Calif.) according to the manufacturer's instructions. Expression of PR1 was visualized by gel electrophoresis of samples after RT-PCR with PR1 primers (AtPR1-F, AtPR1-R).\n(§4) Quantitative real-time PCR was performed using Fast SYBR Green Master Mix (Life Technologies, Carlsbad, Calif.). […]"}, "[3]": {"tested_on": "BdTTM2", "assay": "Expression of TTM2 in Brachypodium distachyon after BTH treatment", "type": "in vivo", "settings": "200 uM BTH, 48 hours", "method": "as §1\n(§5) FIG. 26 illustrates expression of OsTTM2 in 4 week old rice (Oryza sativa) plant and BdTTM2 in the model monocotyledonous plant Brachypodium distachyon 48 hours after BTH (200 uM) treatment. Solution was sprayed with the addition of 0.025% (v/v) Silwet. Expression of both genes was suppressed similar to Arabidopsis TTM2."}, "[4]": {"tested_on": "SITTM2A and B", "assay": "Expression of TTM2 in tomato after BTH treatment", "type": "in vivo, Solanum lycopersicum", "settings": "4-5 week old tomato, 200 μM BTH, 48 hours", "method": "as §1\nFIG. 23 illustrates expression of SITTM2A and B in approximately 4-5 week old tomato (Solanum lycopersicum) 48 hours after with and without BTH (200 μM) treatment. Solution was sprayed with the addition of 0.025% (v/v) Silwet. Expression of both genes was suppressed similar to Arabidopsis TTM2."}, "[5]": {"tested_on": "PhTTM2A and B", "assay": "Expression of TTM2 in Petunia after BTH treatment", "type": "in vivo, Petunia hybrida", "settings": "4-5 week old Petunia, 200 uM BTH, 48 hours", "method": "as §1\nFIG. 25 illustrates expression of PhTTM2A and B in approximately 4-5 week old Petunia (Petunia hybrida) 48 hours after BTH (200 uM) treatment. Solution was sprayed with the addition of 0.025% (v/v) Silwet. Expression of both genes was suppressed similar to Arabidopsis TTM2."}, "[6]": {"tested_on": "BnTTM2a, BnTTM2b", "assay": "qPCR of TTM2 orthologues in canola after BTH treatment", "type": "in vivo, Brassica napus", "settings": "canola var. Westar, 200 μM BTH, 48hrs", "method": "as §2\n(§6) Quantitative real-time PCR was performed using Fast SYBR Green Master Mix (Life Technologies, Carlsbad, Calif.). The expression of Arabidopsis genes were normalized to the expression of AtEF1A (elongation factor1-alpha) while the expression of soybean and canola genes were normalized to GmEF1B (elongation factor1-beta) and BnUBC21 (ubiquitin conjugating enzyme21), respectively.\n(§7) 7- to 10-day old Arabidopsis seedlings were treated with 100 μM SA or 200 μM BTH. […]"}, "[7]": {"tested_on": "CsTTM2", "assay": "Expression of TTM2 in cucumber after BTH treatment", "type": "in vivo, Cucumis sativus", "settings": "4-5 week old cucumber, 200 uM BTH, 48 hours", "method": "as §1\nFIG. 24a illustrates expression of CsTTM2 in approximately 4-5 week old cucumber (Cucumis sativus) 48 hours after BTH (200 uM) treatment. Solution was sprayed with the addition of 0.025% (v/v) Silwet. Expression of the gene was suppressed similar to Arabidopsis TTM2."}, "[8]": {"tested_on": "AtTTM2", "assay": "Quantitative real-time PCR of AtTTM2 expression after SA, BTH or flg22 treatment", "type": "in vivo, Arabidopsis thaliana", "method": "as §2, §3, §4"}, "[9]": {"tested_on": "OsTTM2", "assay": "Expression of TTM2 in rice after BTH treatment", "type": "in vivo, Oryza sativa", "settings": "4 week old rice, 200 uM BTH, 48 hours", "method": "as §1, §5"}, "[10]": {"tested_on": "GmTTM2a/b", "assay": "qPCR of TTM2 orthologues in soybean after BTH treatment", "type": "in vivo, Glycine max", "settings": "soybean var. Harasoy, 200 μM BTH, 48hrs", "method": "as §2, §6, §7"}}}
{"smiles": "c1ccc2snnc2c1", "note": "[BTH, benzothiadiazole]", "values": [{"measurement": "Expression of CaTTM2 after BTH treatment", "setting": "[1]", "result": "suppressed"}, {"measurement": "PR1 gene expression after BTH treatment", "setting": "[2]; 200 μM BTH, 48h", "result": "increase in PR1 gene expression"}, {"measurement": "Expression of BdTTM2 after BTH treatment", "setting": "[3]", "result": "suppressed"}, {"measurement": "Expression of SITTM2A and B after BTH treatment", "setting": "[4]", "result": "suppressed"}, {"measurement": "Expression of PhTTM2A and B after BTH treatment", "setting": "[5]", "result": "suppressed"}, {"measurement": "Expression of BnTTM2a, BnTTM2b in response to BTH", "setting": "[6]", "result": "similarly down-regulated"}, {"measurement": "Expression of CsTTM2 after BTH treatment", "setting": "[7]", "result": "suppressed"}, {"measurement": "AtTTM2 down-regulation after BTH treatment", "setting": "[8]; Col wild type, 200 μM BTH, 48h", "result": "down-regulation was also observed"}, {"measurement": "Expression of OsTTM2 after BTH treatment", "setting": "[9]", "result": "suppressed"}, {"measurement": "Expression of GmTTM2a/b in response to BTH", "setting": "[10]", "result": "similarly down-regulated"}]}
{"smiles": "O=C(O)c1ccccc1O", "note": "[SA, salicylic acid]", "values": [{"measurement": "PR1 gene expression after SA treatment", "setting": "[2]; 100 μM SA, 24h", "result": "increase in PR1 gene expression"}, {"measurement": "AtTTM2 down-regulation after SA treatment", "setting": "[8]; Col wild type plants sprayed with 100 μM SA, 24h", "result": "more than 2 fold"}]}
